Reference: patent US5744452A, “γ-L-glutamyl containing immunomodulator compounds and methods therewith” (Wei; Edward T., priority 1995, dated 1998)

Key:
murine bone marrow cells = experiment: .THETA.-antigen expression on murine bone marrow cells (T-lymphocyte precursor differentiation); type: cell-based, CBA strain mice; set-up: .THETA.-antigen expression on murine bone marrow cells: unit not given here; details: for .THETA.-antigen expression on murine bone marrow cells: Table 1; for Percent of murine bone marrow cells expressing .THETA.-antigen: Table 5
Protocol: Differentiation of murine T-lymphocyte precursors was studied by the enumeration of cells expressing early surface differentiation marker .THETA.-antigen. Bone marrow cells were obtained from CBA strain mice killed by cervical dislocation. Cells were washed from femur bones with Hank's balanced salt solution and washed 3 times with RPM 1-1640 medium by centrifugation at 400 xg. Peptides at desired concentrations were incubated with 1×10^6 /ml of obtained cells for 1 hour at 37° C. Theta-antigen (".THETA.-antigen") expression has been determined with antibrain antibodies in a cytotoxicity assay using complement-dependent cell lysis (Terasaki et al., "Microdroplet Lymphocyte Cytotoxicity Test. Manual of Tissue Typing Techniques," National Institutes of Health, Bethesda, Md., pp 50-55, 1972). Dead cells were counted microscopically after eosin staining. […] Its activity was much stronger than that of the reference thymogen peptide.
Differentiation of murine T-lymphocyte precursors was studied by the enumeration of cells expressing early surface differentiation marker--.THETA.-antigen which is an analog of the Thy-1 lymphocyte differentiation antigen. Bone marrow cells were obtained from CBA strain mice killed by cervical dislocation. Cells were washed from femur bones with Hank's balanced salt solution and washed 3 times with RPMI-1640 medium by centrifugation at 400 xg. Peptides at desired concentrations were incubated with 1×10^6 /ml of obtained cells for 1 hour at 37° C. .THETA.-antigen expression were determined with antibrain antibodies in a cytotoxicity assay using complement-dependent cell lysis (Terasaki et al., 1972). Dead cells were counted microscopically after eosin staining untreated bone marrow cells served as a negative control, and murine thymocytes as a positive control.

murine thymocytes = experiment: Murine thymocyte differentiation after intraperitoneal injection; type: in vivo, CBA mice; details: for Percent of thymocytes expressing L3T4 / Percent of thymocytes expressing Lyt2 / Percent of thymocytes expressing Thy-1: 24 hours
Protocol: Bestim was injected into 3-month old CBA mice at doses ranging from 10 ng/kg to 100 μg/kg intraperitoneally. Mice were killed by cervical dislocation 24 hours after injection, the thymus gland removed, and the cells isolated by centrifugation and washed in RPMI-1640 medium. Expression of surface differentiation antigens were measured using monoclonal antibodies to L3T4 (T-helper marker), Lyt 2 (T-cytotoxic marker) and Thy-1 (common T-lymphocyte marker) molecules in a cytotoxicity assay using complement-dependent cell lysis (Terasaki et al., 1972). Dead cells were counted microscopically after eosin staining.

mice [1] = experiment: Pharmacological activity after oral administration to mice; type: in vivo; details: for .THETA.-antigen expression % of cells: bone marrow after 30 days; for IL-2 production: splenocytes after 30 days
Protocol: Bestim dissolved in saline was given orally, for 5 days, to groups of 5 mice per dose. After 30 days, the quantity of .THETA.-antigen positive cells in bone marrow and IL-2 production by splenocytes were measured (as described in later in methods).

mice [2] = experiment: Acute toxicity, single intramuscular dose, mice; type: in vivo
Protocol: (§1) To illustrate this point and in preparation for clinical studies, acute and sub-acute toxicity studies were conducted in animals with Bestim according to conditions of good-laboratory practices. Bestim, prepared as a sterile lyophitized powder in ampoules, was dissolved in sterile 0.9% NaCl solution and injected intramuscularly in all experiments.
(§2) Acute toxicity: Rodents (mice and rats) and dogs were randomized into groups of equal numbers of males and females. Animals were inspected daily for 14 days after a single dose of Bestim (intramuscular):
(§3) Body weight, overall appearance and behavior were evaluated each day and, at the end of two weeks, macroscopic and histopathological examinations of the internal organs (heart, lungs, pleural and peritoneal cavities, muscles, stomach, small and large intestine, liver, spleen, pancreas, kidneys, bladder, thyroid, brain, skin and testes/ovaries) of all animals were conducted.

rats = experiment: Acute toxicity, single intramuscular dose, rats; type: in vivo; details: single 500.0 mg/kg intramuscular, 14 days
Protocol: as §1, §2, §3

[3] = tested on: patient with colon cancer; experiment: Case History 1: immunodeficiency after cancer chemotherapy (Patient A); type: in vivo, human
Protocol: Patient A was admitted with the diagnosis of colon cancer. Laboratory confirmed immunodeficiency which appeared as a complication of the main illness. Bestim preparation was applied by 5 daily intramuscular injections of 0.1 mg.

[4] = tested on: patients with prostatitis caused by Chlamydian infection; experiment: Trial in prostatitis caused by Chlamydian infection; type: in vivo, human; details: fourteen treated, 30 control patients
Protocol: In addition to these studies, a trial was conducted using Bestim for the treatment of prostatitis caused by Chlamydian infection. Fourteen patients were treated with Bestim with 30 control patients.

aminopeptidases = experiment: Degradation by aminopeptidases; type: in vitro ADME
[5] = mice, single 5000.0 mg/kg intramuscular, 14 days

N[C@@H](CCC(=O)N[C@@H](Cc1c[nH]c2ccccc12)C(=O)O)C(=O)O [Bestim, γ-L-glutamyl-L-tryptophan]
.THETA.-antigen expression on murine bone marrow cells (murine bone marrow cells; peptide 0.0001 μg/ml, 1 hour 37° C.): 14 ± 1.5
.THETA.-antigen expression on murine bone marrow cells (murine bone marrow cells; peptide 0.001 μg/ml): 29 ± 2.4
.THETA.-antigen expression on murine bone marrow cells (murine bone marrow cells; peptide 0.01 μg/ml): 30 ± 2.8
.THETA.-antigen expression on murine bone marrow cells (murine bone marrow cells; peptide 0.1 μg/ml): 34 ± 1.9
.THETA.-antigen expression on murine bone marrow cells (murine bone marrow cells; peptide 1.0 μg/ml): 49 ± 1.2
.THETA.-antigen expression on murine bone marrow cells (murine bone marrow cells; peptide 10 μg/ml): 48 ± 0.8
.THETA.-antigen expression on murine bone marrow cells (murine bone marrow cells; peptide 100 μg/ml): 47 ± 1.0
Percent of murine bone marrow cells expressing .THETA.-antigen (murine bone marrow cells; peptide 0.0001 μg/ml): 25%
Percent of murine bone marrow cells expressing .THETA.-antigen (murine bone marrow cells; peptide 0.001 μg/ml): 31%
Percent of murine bone marrow cells expressing .THETA.-antigen (murine bone marrow cells; peptide 0.01 μg/ml): 35%
Percent of murine bone marrow cells expressing .THETA.-antigen (murine bone marrow cells; peptide 0.1 μg/ml): 37%
Percent of murine bone marrow cells expressing .THETA.-antigen (murine bone marrow cells; peptide 1.0 μg/ml): 49%
Percent of murine bone marrow cells expressing .THETA.-antigen (murine bone marrow cells; peptide 10 μg/ml): 52%
Percent of murine bone marrow cells expressing .THETA.-antigen (murine bone marrow cells; peptide 100 μg/ml): 60%
potency relative to thymogen (murine bone marrow cells; dose-response analysis of Table 1 data): at least 500 fold
concentrations with immunostimulatory activity (murine bone marrow cells; preclinical studies, summary): sub-nanomolar concentrations
Percent of thymocytes expressing L3T4 (murine thymocytes; 0.01 μg/kg i.p.): 40 ± 8%
Percent of thymocytes expressing Lyt2 (murine thymocytes; 0.01 μg/kg i.p.): 45 ± 5%
Percent of thymocytes expressing Thy-1 (murine thymocytes; 0.01 μg/kg i.p.): 95 ± 3%
Percent of thymocytes expressing L3T4 (murine thymocytes; 0.1 μg/kg i.p.): 55 ± 1%
Percent of thymocytes expressing Lyt2 (murine thymocytes; 0.1 μg/kg i.p.): 44 ± 2%
Percent of thymocytes expressing Thy-1 (murine thymocytes; 0.1 μg/kg i.p.): 89 ± 2%
Percent of thymocytes expressing L3T4 (murine thymocytes; 1 μg/kg i.p.): 54 ± 1%
Percent of thymocytes expressing Lyt2 (murine thymocytes; 1 μg/kg i.p.): 46 ± 1%
Percent of thymocytes expressing Thy-1 (murine thymocytes; 1 μg/kg i.p.): 91 ± 1%
Percent of thymocytes expressing L3T4 (murine thymocytes; 10 μg/kg i.p.): 64 ± 1%
Percent of thymocytes expressing Lyt2 (murine thymocytes; 10 μg/kg i.p.): 47 ± 2%
Percent of thymocytes expressing Thy-1 (murine thymocytes; 10 μg/kg i.p.): 90 ± 1%
Percent of thymocytes expressing L3T4 (murine thymocytes; 100 μg/kg i.p.): 70 ± 1%
Percent of thymocytes expressing Lyt2 (murine thymocytes; 100 μg/kg i.p.): 48 ± 1%
Percent of thymocytes expressing Thy-1 (murine thymocytes; 100 μg/kg i.p.): 91 ± 0%
T-lymphocyte subset induced to differentiate in murine thymus (murine thymocytes; conclusion from Table 3): preferentially induces differentiation of a subset of T-helper lymphocytes
activity after oral administration (mice [1]; animal studies, summary): active after oral administration
.THETA.-antigen expression % of cells (mice [1]; oral 0.1 μg/kg/day for 5 days): 48 ± 1.9 % of cells
IL-2 production (mice [1]; oral 0.1 μg/kg/day for 5 days): 43 ± 11.5 Units/ml
.THETA.-antigen expression % of cells (mice [1]; oral 1 μg/kg/day for 5 days): 48 ± 3.0 % of cells
IL-2 production (mice [1]; oral 1 μg/kg/day for 5 days): 73 ± 16.3 Units/ml
.THETA.-antigen expression % of cells (mice [1]; oral 10 μg/kg/day for 5 days): 36 ± 2.3 % of cells
IL-2 production (mice [1]; oral 10 μg/kg/day for 5 days): 130 ± 11.8 Units/ml
deaths (mice [2]; [5]): No deaths were observed
general appearance, behavior, body weight, hematological, biochemical and physiological indices, macroscopic and histopathological examination of internal organs (mice [2]; [5]): all within normal limits
tested dose relative to expected doses for therapeutic trials (mice [2]; single administration): ~5,000,000 fold
deaths (rats): No deaths were observed
general appearance, behavior, body weight, hematological, biochemical and physiological indices, macroscopic and histopathological examination of internal organs (rats): all within normal limits
Lymphocytes ([3]; After Bestim Therapy): 1800 per mm^3
T-Lymphocytes (CD3) ([3]; After Bestim Therapy): 60%
T-helper lymphocytes (CD4) ([3]; After Bestim Therapy): 35%
White blood cells ([3]; After Bestim Therapy (5 daily i.m. 0.1 mg)): 6.9 × 10^3 per mm^3
Lymphocytes ([3]; Before Therapy): 200 per mm^3
T-Lymphocytes (CD3) ([3]; Before Therapy): 23%
T-helper lymphocytes (CD4) ([3]; Before Therapy): 14%
White blood cells ([3]; Before Therapy): 5.5 × 10^3 per mm^3
inflammation in the prostate [4]: inflammation in the prostate was ameliorated
activity of aminopeptidases against the compound (aminopeptidases): not active
